From patent US7687643B2, “Process for preparing 3,3-dimethylindolines” (Amgen Inc., priority 2001, dated 2010)

Tested on: Human Umbilical Vein Endothelial cells (VEGF-stimulated)
Experiment: HUVEC proliferation assay, VEGF-stimulated
Format: cell-based
Conditions: VEGF 50 ng/mL, 72 h, CyQuant, read-out: inhibited VEGF-stimulated HUVEC proliferation at a level
Procedure: Human Umbilical Vein Endothelial cells are purchased from Clonetics, Inc., as cryopreserved cells harvested from a pool of donors. These cells, at passage 1, are thawed and expanded in EBM-2 complete medium, until passage 2 or 3. The cells are trypsinized, washed in DMEM+10% FBS+antibiotics, and spun at 1000 rpm for 10 min. Prior to centrifugation of the cells, a small amount is collected for a cell count. After centrifugation, the medium is discarded, and the cells are resuspended in the appropriate volume of DMEM+10% FBS+antibiotics to achieve a concentration of 3×10^5 cells/mL. Another cell count is performed to confirm the cell concentration. The cells are diluted to 3×10^4 cells/mL in DMEM+10% FBS+antibiotics, and 100 μL of cells are added to a 96-well plate. The cells are incubated at 37° C. for 22 h.
Prior to the completion of the incubation period, compound dilutions are prepared. Five-point, five-fold serial dilutions are prepared in DMSO, at concentrations 400-fold greater than the final concentrations desired. 2.5 μL of each compound dilution are diluted further in a total of 1 mL DMEM+10% FBS+antibiotics (400× dilution). Medium containing 0.25% DMSO is also prepared for the 0 μM compound sample. At the 22-hour timepoint, the medium is removed from the cells, and 100 μL of each compound dilution is added. The cells are incubated at 37° C. for 2-3 h.
During the compound pre-incubation period, the growth factors are diluted to the appropriate concentrations. Solutions of DMEM+10% FBS+antibiotics, containing either VEGF or bFGF at the following concentrations: 50, 10, 2, 0.4, 0.08, and 0 ng/mL are prepared. For the compound-treated cells, solutions of VEGF at 550 ng/mL or bFGF at 220 ng/mL for 50 ng/mL or 20 ng/mL final concentrations, respectively, are prepared since 10 μL of each will be added to the cells (110 μL final volume). At the appropriate time after adding the compounds, the growth factors are added. VEGF is added to one set of plates, while bFGF is added to another set of plates. For the growth factor control curves, the media on wells B4-G6 of plates 1 and 2 are replaced with media containing VEGF or bFGF at the varying concentrations (50-0 ng/mL). The cells are incubated at 37° C. for an additional 72 h.
At the completion of the 72 h incubation period, the medium is removed, and the cells are washed twice with PBS. After the second wash with PBS, the plates are tapped gently to remove excess PBS, and the cells are placed at −70° C. for at least 30 min. The cells are thawed and analyzed using the CyQuant fluorescent dye (Molecular Probes C-7026), following the manufacturer's recommendations. The plates are read on a Victor/Wallac 1420 workstation at 485 nm/530 nm (excitation/emission). Raw data are collected and analyzed using a 4-parameter fit equation in XLFit. IC50 values are then determined.

Question: Which IC50 does the source give for CNc1cc(CNc2ncccc2C(=O)Nc2ccc3c(c2)CNCC3(C)C)ccn1 [Example 1130, N-(4,4-Dimethyl-1,2,3,4-tetrahydro-isoquinolin-7-yl)-2-[(2-methylamino-pyridin-4-ylmethyl)-amino]-nicotinamide] here?
Answer: < 50 nM

Question: Which IC50 does the source give for CNc1cc(CNc2ncccc2C(=O)Nc2cc(OC[C@@H]3CCCN3C)cc(C(F)(F)F)c2)ccn1 [Example 1143, 2-[(2-Methylamino-pyridin-4-ylmethyl)-amino]-N-[3-(1-methyl-pyrrolidin-2-ylmethoxy)-5-trifluoromethyl-phenyl]-nicotinamide] here?
Answer: < 50 nM

Question: For CC1(C)CCNc2cc(NC(=O)c3cccnc3NCc3ccnc(N)c3)ccc21 [Example 1111, 2-[(2-Amino-pyridin-4-ylmethyl)-amino]-N-(4,4-dimethyl-1,2,3,4-tetrahydro-quinolin-7-yl)-nicotinamide], which IC50 is on record?
Answer: < 50 nM

Question: With CS(=O)(=O)NCCOc1cc(NC(=O)c2cccnc2NCc2ccncc2)ccc1C(F)(F)C(F)(F)F [Example 1031, N-(3-((2-((Methylsulfonyl)amino)ethyl)oxy)-4-(pentafluoroethyl)phenyl)-2-((4-pyridinylmethyl)amino)-3-pyridinecarboxamide] as the compound, how does the IC50 read?
Answer: < 50 nM

Question: Which IC50 does the source give for CNc1cc(CNc2ncccc2C(=O)Nc2ccc3c(c2)NCC3(C)C)ccn1 [Example 1104, N-(3,3-Dimethyl-2,3-dihydro-1H-indol-6-yl)-2-[(2-methylamino-pyridin-4-ylmethyl)-amino]-nicotinamide] here?
Answer: < 50 nM

Question: Which IC50 does the source give for O=C(Nc1ccc(C(F)(F)C(F)(F)F)cc1)c1cccnc1NCc1ccncc1 [Example 78, N-[4-(1,1,2,2,2-Pentafluoroethyl)phenyl]{2-[(4-pyridylmethyl)amino](3-pyridyl)}carboxamide] here?
Answer: < 50 nM

Question: For O=C(Nc1ccc(C(F)(F)F)c(OCCN2CCCC2)c1)c1cccnc1NCc1ccnc2ccccc12 [Example 1021, N-(3-((2-(1-pyrrolidinyl)ethyl)oxy)-4-(trifluoromethyl)phenyl)-2-((4-quinolinylmethyl)amino)-3-pyridinecarboxamide], which IC50 is on record?
Answer: < 50 nM

Question: With CC1(C)CNCc2cc(NC(=O)c3cccnc3NCc3ccnc4[nH]ccc34)ccc21 [Example 1145, N-(4,4-Dimethyl-1,2,3,4-tetrahydro-isoquinolin-7-yl)-2-[(1H-pyrrolo[2,3-b]pyridin-4-ylmethyl)-amino]-nicotinamide] as the compound, how does the IC50 read?
Answer: < 50 nM

Question: CNc1nccc(CNc2ncccc2C(=O)Nc2ccc3c(c2)NC(=O)CC3(C)C)n1 [Example 1115, N-(4,4-Dimethyl-2-oxo-1,2,3,4-tetrahydro-quinolin-7-yl)-2-[(2-methylamino-pyrimidin-4-ylmethyl)-amino]-nicotinamide] was tested. Which IC50 did it give?
Answer: < 50 nM

Question: Which IC50 does the source give for CNc1nccc(CNc2ncccc2C(=O)Nc2ccc3c(c2)NC(=O)C3(C(F)(F)F)C(F)(F)F)n1 [Example 1036, 2-(((2-(Methylamino)-4-pyrimidinyl)methyl)amino)-N-(2-oxo-3,3-bis(trifluoromethyl)-2,3-dihydro-1H-indol-6-yl)-3-pyridinecarboxamide] here?
Answer: < 50 nM

Question: Which IC50 does the source give for CC1(C)CC(=O)Nc2cc(NC(=O)c3cccnc3NCc3ccncc3)ccc21 [Example 1114, N-(4,4-Dimethyl-2-oxo-1,2,3,4-tetrahydro-quinolin-7-yl)-2-[(pyridin-4-ylmethyl)-amino]-nicotinamide] here?
Answer: < 50 nM

Question: CC(CNc1cc(CNc2ncccc2C(=O)Nc2ccc3c(c2)NCC3(C)C)ccn1)N1CCOCC1 (stereo not shown) [Example 1008, N-(3,3-dimethyl-2,3-dihydro-1H-indol-6-yl)-2-{[2-(2-morpholin-4-yl-propylamino)-pyridin-4-ylmethyl]-amino}-nicotinamide] was tested. Which IC50 did it give?
Answer: < 50 nM

Question: For CC1(C)CN(S(C)(=O)=O)c2cc(NC(=O)c3cccnc3NCc3ccncc3)ccc21 [Example 1068, N-(3,3-dimethyl-1-(methylsulfonyl)-2,3-dihydro-1H-indol-6-yl)-2-((4-pyridinylmethyl)amino)-3-pyridinecarboxamide], which IC50 is on record?
Answer: < 50 nM
